{"source": "paper PMC11224109", "about": "“Synthesis and preclinical evaluation of novel ^18F-vancomycin-based tracers for the detection of bacterial infections using positron emission tomography” (European Journal of Nuclear Medicine and Molecular Imaging, 2024)", "origin": "cited, not measured here", "settings": "cited from earlier work"}
{"smiles": "CN[C@H](CC(C)C)C(=O)N[C@H]1C(=O)N[C@@H](CC(N)=O)C(=O)N[C@H]2C(=O)N[C@H]3C(=O)N[C@H](C(=O)N[C@H](C(=O)O)c4cc(O)cc(O)c4-c4cc3ccc4O)[C@H](O)c3ccc(c(Cl)c3)Oc3cc2cc(c3O[C@@H]2O[C@H](CO)[C@@H](O)[C@H](O)[C@H]2O[C@H]2C[C@](C)(N)[C@H](O)[C@H](C)O2)Oc2ccc(cc2Cl)[C@H]1O", "note": "[vancomycin]", "values": [{"measurement": "Clinically relevant serum levels", "result": "about 15 µg/mL"}]}
